Earlier results on one substance are cited in article PMC4696931 (Advanced healthcare materials, 2015).

In data set [1] the test system is MMP2. As to conditions: linker peptide alone.
Data set [2] has as its system MMP2. As to conditions: PEG hydrogels with the peptide as crosslinker.

On to SGESPAY↓YTA [NRL1], for which the “reported kcat KM^−1 for MMP2” value in the data set with MMP2 [1] was 440000 M⁻¹ s⁻¹. For the same substance, the “time to degradation of hydrogels crosslinked with the sequence in MMP2” value with MMP2 [2] is reported as ~ 1 days.
